In brackets after ≈: the same amount, converted by molar mass. Activity calls are given as the source filed them.

The text below walks through data of ChEMBL document CHEMBL4368855, “Novel tricyclic glycal-based TRIB1 inducers that reprogram LDL metabolism in hepatic cells” (Medchemcomm, 2018).

Data set [1] relates to HepG2. The data set can be described thus: Down regulation of PCSK9 gene expression in human HepG2 cells measured after 24 hrs by qRT-PCR analysis. Type of data set: functional, cell-based. To be noted: HepG2, 24 h. (In general: Quantitative PCR measures a nucleic acid by following its amplification.)
Data set [2] in a line: Solubility of the compound in 1% DMSO/phosphate buffered saline at pH 7.4 incubated for 18 hrs under shaking condition by UPLC/MS analysis. Type of data set: physicochemical.
In data set [3] the test system is HepG2. In words: Up regulation of LDLR gene expression in human HepG2 cells measured after 6 hrs by qRT-PCR analysis. In kind it is functional, cell-based. To be noted: HepG2, 6 h.
The subject of data set [4] is HepG2. The data set can be described thus: Up regulation of TRIB1 gene expression in human HepG2 cells measured after 6 hrs by qRT-PCR analysis. In kind it is functional, cell-based. The following applies: HepG2, 6 h.
A short description of data set [5]: Stability in mouse liver microsomes assessed as parent compound remaining at 1 uM incubated for 60 mins under shaking condition by UPLC/MS analysis. To be noted: read-out: Stability. Type of data set: ADME, Microsome.
Data set [6] deals with HepG2. In words: Up regulation of LDLR gene expression in human HepG2 cells measured after 6 hrs by qRT-PCR analysis relative to control. Type of data set: functional.
The test system of data set [7] is HepG2. The data set can be described thus: Up regulation of TRIB1 gene expression in human HepG2 cells measured after 6 hrs by qRT-PCR analysis relative to control. Type of data set: functional.
The nature of data set [8]: Tmax in C57BL/6 mouse liver at 10 mg/kg, ip administered as single dose by mass spectrometry. Type of data set: ADME, organism-based.
Data set [9] is described as follows: Unbound fraction in C57BL/6 mouse liver at 10 mg/kg, ip administered as single dose by mass spectrometry. In kind it is ADME, organism-based.
Data set [10] is described as follows: Apparent volume of distribution in C57BL/6 mouse liver at 10 mg/kg, ip administered as single dose by mass spectrometry. Type of data set: ADME, organism-based. The following applies: in vivo.
The nature of data set [11]: Cmax in C57BL/6 mouse liver at 10 mg/kg, ip administered as single dose by mass spectrometry. Type of data set: ADME, organism-based. Details: dose 10 mg/kg, route intraperitoneal.
Data set [12] can be described thus: AUC (infinity) in C57BL/6 mouse plasma at 10 mg/kg, ip administered as single dose by mass spectrometry. In kind it is ADME, organism-based. Details: dose 10 mg/kg, route intraperitoneal, time infinity. The following applies: in vivo.
The nature of data set [13]: Clearance in C57BL/6 mouse plasma at 10 mg/kg, ip administered as single dose by mass spectrometry. In kind it is ADME, organism-based.
A short description of data set [14]: Half life in C57BL/6 mouse liver at 10 mg/kg, ip administered as single dose by mass spectrometry. Type of data set: ADME, organism-based.
The nature of data set [15]: AUC (infinity) in C57BL/6 mouse liver at 10 mg/kg, ip administered as single dose by mass spectrometry. Type of data set: ADME, organism-based. The following applies: in vivo. Details: dose 10 mg/kg, route intraperitoneal, time infinity.
Data set [16] can be described thus: Half life in C57BL/6 mouse plasma at 10 mg/kg, ip administered as single dose by mass spectrometry. Type of data set: ADME, organism-based.
Data set [17] in a line: Apparent volume of distribution in C57BL/6 mouse plasma at 10 mg/kg, ip administered as single dose by mass spectrometry. In kind it is ADME, organism-based. The following applies: in vivo.
The nature of data set [18]: Tmax in C57BL/6 mouse plasma at 10 mg/kg, ip administered as single dose by mass spectrometry. Type of data set: ADME, organism-based.
Data set [19] in a line: Cmax in C57BL/6 mouse plasma at 10 mg/kg, ip administered as single dose by mass spectrometry. Details: dose 10 mg/kg, route intraperitoneal. In kind it is ADME, organism-based.
Data set [20] has as its system HepG2. In words: Induction of LDL uptake in human HepG2 cells preincubated for 20 hrs followed by BODIPY-FL-LDL addition and measured after 5 hrs by Hoechst 33342 staining based microscopic analysis. Type of data set: functional, cell-based.
The test system of data set [21] is HepG2. The data set can be described thus: Induction of LDLR expression in human HepG2 cells by luminex assay. Type of data set: functional, cell-based.
Data set [22] has as its system HepG2. The data set can be described thus: Up regulation of LDLR expression in human HepG2 cells after 24 hrs by ELISA. Type of data set: functional, cell-based.
The test system of data set [23] is HepG2. The data set can be described thus: Inhibition of PCSK9 secretion in human HepG2 cells by luminex assay. Type of data set: functional, cell-based.
The test system of data set [24] is HepG2. The data set can be described thus: Induction of TRIB1 expression in human HepG2 cells measured after overnight incubation by qRT-PCR analysis. Type of data set: functional, cell-based.
The subject of data set [25] is HepG2. In words: Down regulation of PCSK9 expression in human HepG2 cells after 24 hrs by ELISA. In kind it is functional, cell-based. (In general: In an ELISA, binding on a coated surface is turned into a signal by an enzyme label.)

A word on the EC50: it is the concentration needed to bring the measured effect to its halfway point. A lower EC50 goes with higher potency in that assay. For orientation: solubility (kinetic) means the concentration staying in solution when a stock, usually in DMSO, is diluted into the medium. As for `CN1C(=O)c2cc(NC(=O)c3ccc(C(F)(F)F)cc3)ccc2OC[C@@H]2O[C@H](CNC(=O)CC(C)(C)C)CC[C@@H]21`, the EC50 was determined as 100 nM with HepG2 [1], 500 nM in the data set on HepG2 [3] and 720 nM in the data set on HepG2 [4]. Besides, in data set [2], the kinetic solubility at 18 h came out at 6 µM (≈ 3.37 µg/mL). Besides, in data set [5], the remaining at 1 h, 1 µM was determined as 0%. Moreover, the max activation in the data set with HepG2 [6] was 1.9; in the data set on HepG2 [7], 6.6.

As a reminder, the Tmax is the time from dosing to the highest level. What is called fraction unbound is free concentration divided by total concentration. The Cmax is the highest concentration seen after dosing. By CL/F is commonly meant clearance divided by bioavailability, as obtained after extravascular dosing. What is called half-life is the time needed for the level to fall by half in the phase considered. A high value points to slow decline. Consider `CN1C(=O)c2cc(NC(=O)c3ccc(C(F)(F)F)cc3)ccc2OC[C@@H]2O[C@H](CNc3nnc(C4CCC4)o3)CC[C@@H]21`, for which the EC50 is 95 nM with HepG2 [1], 1450 nM in the data set on HepG2 [3] and 320 nM with HepG2 [4]. Moreover, the Tmax in data set [8] and in data set [18] was 1 h in each case. Moreover, the fraction unbound in data set [9] turned out to be 0.02. The kinetic solubility at 18 h in data set [2] was found to be 27.5 µM (≈ 16.1 µg/mL). Further, the Vz was 0.72 L/kg in data set [10] and 3.25 L/kg in data set [17]. The figures for the Cmax in data set [11] and in data set [19] were 13800 ng/mL and 3050 ng/mL, respectively. The AUC in data set [12] was 6464 µg/L/h; in [15], 35928 µg/L/h. In [13], this compound gave a CL/F of 25.8 mL/min/kg. Also, the figures for the half-life in data set [14] and in data set [16] were 1.78 h and 1.46 h, respectively. In addition, the remaining at 1 h, 1 µM in data set [5] is 18%. In addition, the max activation turned out to be 3.8 with HepG2 [6] and 4.6 in the data set on HepG2 [7].

As for `CN1C(=O)c2cc(NC(=O)c3ccc(C(F)(F)F)cc3)ccc2OC[C@@H]2O[C@@H](CC(=O)NC3Cc4ccccc4C3)CC[C@@H]21`, the result with HepG2 [20], with HepG2 [21], in the data set with HepG2 [22] and with HepG2 [25] was Active. Moreover, the inhibition result in the data set with HepG2 [23] was “Active”. The same compound gave an EC50 in the data set on HepG2 [24] of 2030 nM.

For the compound `CN1C(=O)c2cc(NC(=O)c3ccc(C(F)(F)F)cc3)ccc2OC[C@@H]2O[C@H](CNC(=O)[C@@H]3CCCO3)CC[C@@H]21`, the figures for the EC50 in the data set on HepG2 [1], with HepG2 [3] and in the data set with HepG2 [4] were 25 nM, 2450 nM and 1100 nM, respectively. This compound yielded a solubility (kinetic) at 18 h in data set [2] of 90 µM (≈ 50.5 µg/mL). For the same compound, the remaining at 1 h, 1 µM in data set [5] was 54%. The results for the max activation in the data set with HepG2 [6] and in the data set on HepG2 [7] were 4.3 and 3.7, respectively.

`CN1C(=O)c2cc(NC(=O)c3ccc(C(F)(F)F)cc3)ccc2OC[C@H]2O[C@@H](CC(=O)NC3Cc4ccccc4C3)CC[C@@H]21` registered an EC50 in the data set on HepG2 [24] above 25000 nM.
